According to patent publication US9023987B2, “Cell-permeable peptide” (Seoul National University R&DB Foundation, priority 2010, dated 2015):

How the values were obtained:
[1] = test system: human mesenchymal stem cells (hMSC); assay: Cytotoxicity by MTT assay; type: cell-based; set-up: dose or concentration left out as unconfirmed; settings: 24, 48, and 72 hours, FIG. 5
Description: In order to confirm whether or not cell proliferation is affected by potential toxicity when the cell permeable peptide-bone differentiation inducing sequence conjugate and control domains are cultured with hMSC, a 3-[4,5-dimethylthiazo-2-yl]-2,5-diphenyl tetrazolium bromide thiazolyl blue (MTT) assay method was used.
The MTT assay method is a method for measuring cytotoxicity by measuring absorbance of formazan produced as mitochondrial dehydrogenases in alive and metabolically active cells reduces MTT to indicate the absorbance as a percentage based on the control group. In this case, the measured absorbance reflects a concentration of the alive and metabolically active cells. 2,3,5-triphenyl tetrazolium chloride (TTC) is reduced to formazan in live cells. The formazan is insoluble purple color, and a respiration rate may be measured by a degree of color. The absorbance of formazan is maximal at 540 nm, and the absorbance measured at this wavelength reflects the concentration of the alive and metabolically active cells. Since a linear relationship between the absorbance and the concentration of the cells is not established when a concentration of cells in well to be measured is excessively high or low, a process of determining an optimal concentration of the cells was performed. […]

[2] = test system: Smad1/5/8 phosphorylation, RUNX2; assay: Western blot of signal transduction proteins in cytoplasmic and nuclear fractions; type: cell-based, human; settings: 10 μm, 1.5 hours, hMSC, compared with PBS; FIG. 4D
Description: In order to confirm cell differentiation ability of the cell permeable peptide-bone differentiation inducing sequence conjugate, using proteins serving an important role in signal transduction pathways in the cytoplasmic fraction and the nuclear fraction, human mesenchymal stem cells (hMSC) were seeded in each well of a 10 cm-dish at 1×10^6/well, and then incubated in a general medium for 20 hours (overnight) for cell stabilization. After 20 hours of the incubation, the cells were treated with the cell permeable peptide-bone differentiation inducing sequence conjugate and the bone differentiation inducing sequence of Comparative Example 2 of 10 μm for each for 1.5 hours.
After that, in order to compare the expression degree of intercellular protein, in each of the cells treated with the cell permeable peptide-bone differentiation inducing sequence conjugate of Example 1 and the bone differentiation inducing sequence of Comparative Example 2, cytoplasm and nucleus were separated using NE-PER nuclear and cytoplasmic extraction reagents according to the manufacturer's instructions (Pierce, USA). The protein in the hMSC lysis solution containing the separated cytoplasm and nucleus was determined by Bradford's assay, and then subjected to electrophoresis using 10% polyacrylamide gel at 120 volts for 4 hours. […]

Substance: NH2-GAPPPADSAP-SSRKKNPNCRRH-C-COONH2 (H-GAPPPADSAPSSRKKNPNCRRHC-NH2; cysteine pairing not given here) [Example 1]
- cytotoxicity (MTT, cell proliferation ability compared with PBS) [1]: did not exhibit cytotoxicity
- RUNX2 in the nucleus (western blot) [2]: noticeably increased RUNX2
- phosphorylation of Smad1/5/8 (western blot) [2]: exhibited Smad 1/5/8 phosphorylation
